What is called DC50 is the midpoint of the concentration-degradation curve. Usually Dmax stands for the greatest extent of degradation seen.

The values below come from patent publication US20250195513A1, “DEGRADATION OF IRAK4 BY CONJUGATION OF IRAK4 INHIBITORS WITH E3 LIGASE LIGAND AND METHODS OF USE” (BeiGene, Ltd., priority 2022, published 2025).

Test [1] concerns the target T1, IRAK4 (Homo sapiens, UniProt Q9NWZ3).
T1 construct: endogenous in cells; host or cells: Karpas299
T1 sequence (Q9NWZ3 1-460): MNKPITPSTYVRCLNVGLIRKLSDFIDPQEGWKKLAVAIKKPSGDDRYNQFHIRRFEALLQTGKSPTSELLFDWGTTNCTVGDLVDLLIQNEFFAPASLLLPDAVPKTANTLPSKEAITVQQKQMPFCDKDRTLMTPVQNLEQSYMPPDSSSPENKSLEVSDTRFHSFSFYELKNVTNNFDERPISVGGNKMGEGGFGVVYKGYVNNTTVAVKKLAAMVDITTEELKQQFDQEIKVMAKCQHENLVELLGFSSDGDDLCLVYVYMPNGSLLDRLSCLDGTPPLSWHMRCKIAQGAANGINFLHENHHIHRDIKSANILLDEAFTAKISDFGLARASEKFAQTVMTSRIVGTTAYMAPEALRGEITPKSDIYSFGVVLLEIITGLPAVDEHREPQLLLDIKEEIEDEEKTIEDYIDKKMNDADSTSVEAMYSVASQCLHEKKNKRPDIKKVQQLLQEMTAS
As to the kind of experiment: IRAK4 Degradation Assay with Human Serum (Karpas299, HTRF/TR-FRET). In kind it is cell-based. The conditions noted are these: Karpas-299 in human serum, 24 hrs treatment; for DC50: read-out: IRAK4 degradtion with human serum assay DC50; for Dmax: read-out: IRAK4 degradtion with human serum assay Dmax (%). As for the experimental part:
IRAK4 degradation was measured using a TR-FRET-based method (Degorce, François, et al. Current chemical genomics. 2009, 3: 22). Karpas299 resuspended in Human serum AB (GEMINI, 100-512) were seeded into 96-well plates at the density of 0.2 million cells per well and then treated with a series dilution of compounds. After 24 hrs treatment, cells were pelleted via centrifugation and washed with PBS, add 40 μL lysis buffer (Cisbio) to each well after removal of the supernatant. Plates were then incubated at room temperature with shaking for 30 minutes. A total of 16 μL of cell lysates from each well of a 96-well plate was transferred to a 384-well white assay plate. IRAK4 level was quantitated using the HTRF kit as described by the manufacturer manual (Cisbio). FRET signals were measured using a PHERAstar FSX reader (BMG Labtech).
After treatment, add HTRF lysis buffer to each well; seal the plate and incubate 1 hour at room temperature on a plate shaker; Once the cells are lysed, 16 μL of cell lysate are transferred to a PE 384-well HTRF detection plate; 4 μL of pre-mixed HTRF antibodies are added to each well; Cover the plate with a plate sealer, spin 1000 rpm for 1 min, Incubate overnight at room temperature; Read on BMG PheraStar with HTRF protocol (337 nm-665 nm-620 nm).
The inhibition (degradation) percentage of the compound was calculated by the following equation: […]
The IC50 (DC50) value of a compound can be obtained by fitting the following equation
Wherein, X and Y are known values, and IC50, Hillslope, Top and Bottom are the parameters obtained by fitting with software. Y is the inhibition percentage (calculated from the equation), X is the concentration of the compound; IC50 is the concentration of the compound when the […] is reached. The smaller the IC50 value is, the stronger the inhibitory ability of the compound is. Vice versa, the higher the IC50 value is, the weaker the ability the inhibitory ability of the compound is; Hillslope represents the slope of the fitted curve, generally around 1 *; Bottom represents the minimum value of the curve obtained by data fitting, which is generally 0%±20%; Top represents the maximum value of the curve obtained by data fitting, which is generally 100%±20%. The experimental data were fitted by calculating and analyzing with Dotmatics data analysis software.
(TR-FRET usually uses a lanthanide donor and a delayed reading to cut background.)

In test [2] the target is T1, IRAK4. As to the kind of experiment: IRAK4 Degradation Assay (Karpas299, HTRF/TR-FRET). In kind it is cell-based. The conditions noted are these: Karpas-299 cells, 24 h treatment; for Dmax: maximum percentage of degradation, read-out: IRAK4 in Karpas-299 (24 h) Dmax (%); for DC50: read-out: IRAK4 in Karpas-299 (24 h) DC50. A digest of the protocol:
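Karpas299 cells at 0.2 million per well were exposed to serially diluted compounds for 24 h or 5 h, then lysed. IRAK4 remaining in lysates was quantified by HTRF (665/620 nm) after overnight antibody incubation at room temperature. Percent degradation was fitted to a four-parameter curve to give IC50 (DC50).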

With `CC(C)(O)c1cc2nn([C@H]3CC[C@H](N4CCN(C5CN(c6cc(F)c([C@H]7CCC(=O)NC7=O)c(F)c6)C5)CC4=O)CC3)cc2cc1NC(=O)c1ccc2cc(C#N)cnn12` [Example 335, 3-cyano-N-(2-((1R,4r)-4-(4-(1-(4-((R)-2,6-dioxopiperidin-3-yl)-3,5-difluorophenyl)azetidin-3-yl)-2-oxopiperazin-1-yl)cyclohexyl)-6-(2-hydroxypropan-2-yl)-2H-indazol-5-yl)pyrrolo[1,2-b]pyridazine-7-carboxamide], on IRAK4 [1], the DC50 was found to be 64 nM and the Dmax was 99%. Further, on IRAK4 [2], the Dmax amounted to 93% and the DC50 is 0.6 nM.
Taken in the same sequence, the figures for `CC(C)(O)c1cc2nn([C@H]3CC[C@H](N4CCN([C@H]5C[C@@H](c6ccc(N[C@@H]7CCC(=O)NC7=O)cc6)C5)CC4)CC3)cc2cc1NC(=O)c1ccc2cc(C#N)cnn12` [Example 271, 3-cyano-N-(2-((1R,4r)-4-(4-((1S,3S)-3-(4-(((R)-2,6-dioxopiperidin-3-yl)amino)phenyl)cyclobutyl)piperazin-1-yl)cyclohexyl)-6-(2-hydroxypropan-2-yl)-2H-indazol-5-yl)pyrrolo[1,2-b]pyridazine-7-carboxamide] were 11 nM, 101%, 94% and 4 nM.
Taken in the same sequence, the figures for `CC(C)(O)c1cc2nn([C@H]3CC[C@H](N4CCN(C[C@@H]5CCN(c6cc(F)c([C@H]7CCC(=O)NC7=O)c(F)c6)C5)CC4)CC3)cc2cc1NC(=O)c1ccc2cc(C#N)cnn12` [Example 392, 3-cyano-N-(2-((1S,4r)-4-(4-(((S)-1-(4-((R)-2,6-dioxopiperidin-3-yl)-3,5-difluorophenyl)pyrrolidin-3-yl)methyl)piperazin-1-yl)cyclohexyl)-6-(2-hydroxypropan-2-yl)-2H-indazol-5-yl)pyrrolo[1,2-b]pyridazine-7-carboxamide] were 11 nM, 98%, 97% and 0.9 nM.
Taken in the same sequence, the figures for `CC(C)(O)c1cc2nn(C34CC(N5CCN(C(=O)C6CN(c7cc(F)c([C@H]8CCC(=O)NC8=O)c(F)c7)C6)CC5)(C3)C4)cc2cc1NC(=O)c1cccc(C(F)(F)F)n1` [Example 153, (R)—N-(2-(3-(4-(1-(4-(2,6-dioxopiperidin-3-yl)-3,5-difluorophenyl)azetidine-3-carbonyl)piperazin-1-yl)bicyclo[1.1.1]pentan-1-yl)-6-(2-hydroxypropan-2-yl)-2H-indazol-5-yl)-6-(trifluoromethyl)picolinamide] were 50 nM, 94%, 97% and 1.6 nM.
Consider `CC(C)(O)c1cc2nn(C34CC(N5CCN(CCc6cc(F)c([C@H]7CCC(=O)NC7=O)c(F)c6)CC5)(C3)C4)cc2cc1NC(=O)c1ccc2cc(C#N)cnn12` [Example 159, (R)-3-cyano-N-(2-(3-(4-(4-(2,6-dioxopiperidin-3-yl)-3,5-difluorophenethyl)piperazin-1-yl)bicyclo[1.1.1]pentan-1-yl)-6-(2-hydroxypropan-2-yl)-2H-indazol-5-yl)pyrrolo[1,2-b]pyridazine-7-carboxamide], for which the values for the DC50 on IRAK4 [1] and on IRAK4 [2] were 5.2 nM and 1.5 nM, respectively. Besides, the Dmax at IRAK4 [1] worked out at 94%; at IRAK4 [2] it was 95%.
Taken in the same sequence, the figures for `CC(C)(O)c1cc2nn([C@H]3CC[C@H](N4CCN(C5CCN(c6cc(F)c([C@H]7CCC(=O)NC7=O)c(F)c6)CC5)C[C@@H]4CO)CC3)cc2cc1NC(=O)c1ccc2cc(C#N)cnn12` [Example 399, 3-cyano-N-(2-((1R,4r)-4-((R)-4-(1-(4-((R)-2,6-dioxopiperidin-3-yl)-3,5-difluorophenyl)piperidin-4-yl)-2-(hydroxymethyl)piperazin-1-yl)cyclohexyl)-6-(2-hydroxypropan-2-yl)-2H-indazol-5-yl)pyrrolo[1,2-b]pyridazine-7-carboxamide] were 11 nM, 0.5 nM, 99% and 96%.
